# Measured values as given in patent publication US6140363A, “Use of rosmarinic acid and derivatives thereof as an immunosuppressant or an inhibitor of SH2-mediated processes” (Mogam Biotechnology Research Institute, priority 1998, dated 2000).
# Entries after “also recorded” stand apart in the source; their conditions may differ. Like-named read-outs stand apart in the source and are kept apart here.
# Key:
# Lck SH2 domain = biological target: T1, Lck SH2 domain (Homo sapiens, UniProt P06239); experiment: in vitro binding between Lck SH2 domain (GST fusion) and biotinylated phosphotyrosyl peptide
# T1 construct: Lck SH2 domain expressed and purified as a fusion protein with Glutathione-S-transferase; made in house
# Description: A novel screening system was developed in the present invention to screen a substance inhibiting the interaction between Lck SH2 domain and its ligand. In the binding assay, Lck SH2 domain expressed and purified as a fusion protein with Glutathione-S-transferase (GSI) were covalently attached to 96-well microtitre plates through amide bond formation. The immobilized proteins were subsequently allowed to bind biotinylated phosphotyrosine (Y)-containing synthetic peptide (biotin-[…]pYEEIPI) known as a high affinity ligand for the Lck SH2 domain.
# For attachment to 96-well microtitre plate, 1 μM of purified fusion protein (GST-Lck SH2) was reacted for 2 hours at room temperature. Added to the binding assay were 1 μM of the biotinylated synthetic peptide (the ligand of Lck SH2 domain) and a candidate for the inhibitor. The candidates were thousands of natural products including various kinds of Streptoryces, fungi and herbs extract. Binding reaction was performed for 2 hours at room temperature, allowing the competitive inhibition of the binding between GST-Lck SH2 and the peptide ligand. Then peroxidase-conjugated streptavidin (Pierce, USA) was added into the mixture so that added conjugates can be bound to biotinylated peptide. After unbound conjugates were washed, coloring reaction was performed to measure the activity of immobilized peroxidase, or the binding activity of the peptide to SH2 domain in the presence of the candidate added. More particularly, the coloring reaction was initiated by adding 3,3,5,5-tetramethyl benzidine (substrate) to the reaction mixture. After 30 minutes, the reaction was stopped by adding 0.8M sulfuric acid, and immediately brought to the spectrophotometry of measuring absorbance at 450 nm.
# Various concentrations (0.03~300 μg/ml) of rosmarinic acid solution, which was isolated from Prunella vulgaris or derivatives thereof, were added to the protein-coated micro-well mixed with phosphopeptide solution. The binding of biotiyated pY peptides was detected by the streptavidin-conjugated horseradish peroxidase (HRP).
# [1] = test system: IL-2 gene expression in Jurkat T cells; experiment: TCR stimulation-induced IL-2 gene expression, IL-2-luciferase reporter system; type: cell-based; settings: 8 μM, 30 min prior to T cell activation
# Method: The effects of rosmarinic acid and derivatives thereof on the level of IL-2 gene expression were tested by using the IL-2-luciferase reporter system, in which cultured cells were transfected with a reporter plasmid. The plasmid was constructed by fusion of the IL-2 promoter sequence with the structural gene of luciferase. […] Cells were activated by incubation for 14 h on a 35 mm dish coated with 5 μg/ml anti-CD3 antibody (UCHT1, Pharmingen) and/or anti-CD4 antibody (RPA-T4, Pharmingen) and then harvested. For PMA plus Iononycin stimulation, 5 ng/ml of PMA and 500 ng/ml of lonomycin were added to the culture media and incubated for 14 h. Luciferase activity was determined three times in duplicate for each experiment with a Berthold luminometer LB953.
# [2] = test system: DNFB-induced contact hypersensitivity; experiment: contact hypersensitivity response to DNFB, ear thickness; type: in vivo, Balb/c female mice; settings: intramuscular, 6 consecutive days during induction phase; rosmarinic acid 5-50 mg/kg/day
# Method: In vivo test procedure evaluating the immunosuppressive activity was performed using contact hypersensitivity response to DNEB (2,4-dinitroflourobenzene). […] This is an antigen-specific T cell-mediated inflammatory response that represents delayed-type hypersensitivity (DTH) reactions seen in both humans and other mammals. The contact sensitivity animal model is used routinely in many laboratories for pharmacological screening of anti-inflammatory agents and agents for the treatment of autoimmune diseases. […] The procedure is summarized as following. Balb/c female mice were used at 8 weeks of age. Twenty μl of 0.5% DNFB (Sigma Chemical Co.) in 4:1 diluted acetone: olive oil (Sigma Chemical Co.) was painted on each shaved abdominal skin for 2 successive days. Four days later, the mice were challenged by applying 10 μl of 0.2% DNFB in the same vehicle to each side of each ear. Cydosporin A and rosmarinic acid were treated through intramuscular administration at the indicated doses from 0 to 5 day. Ear thickness was measured using engineer's micrometer (Mitutoyo Co. Mfg. Ltd., Tokyo) 24 h after postchallenge.
# [3] = test system: C57BL/6 tail-skin graft on Balb/c recipient mice; experiment: skin allograft rejection, survival time of skin graft; type: in vivo
# Method: In vivo procedure evaluated the survival time of a skin graft.
# Experimental allograft rejection was performed by grafting allogeneic C57BL/6 (H-2b) mouse tail-skin onto Balb/c (H-2d) recipient mice. Rosmarinic acid and derivative thereof were administered intramuscularly from the day of the transplantation until rejection. […] Full-thickness donor (C57BL/6) tail skin grafts (square pieces 2.0×2.0 cm) were transplanted onto the lateral thorax of recipient mice (Balb/C) and covered with sterile bactericidal gauze. The entire chest was then wrapped with an elastic bandage. […] Skin graft were monitored daily after the removal of the bandage on day 6. Rejection was defined as more than 90% necrosis of the graft epithelium.
# SPF SD type rat = experiment: parenteral administration test for acute toxicity; type: in vivo
# Description: Acute toxicity was examined using 6week-old SPF SD type rat. As liposomal form, I g/kg of rosmarinic acid, rosmarinyl isopropyl ester, rosmarinyl ethyl ester, (S)-rosmarinyl bis(tert-butyldimethylsilyl)ether or (S)-rosmarinic acid was intramuscularly injected into two […] per experimental group.
# Jurkat cells = experiment: intracellular calcium signaling activated by anti-CD3 and anti-CD4 antibodies (Fura-2/AM); type: cell-based; settings: 0.5-50 μg for 10 minutes, then anti-CD3 and anti-CD4 antibodies
# Method: Fura-2/AM (Calbiochem, San Diego, Calif., USA), a fluorescent indicator of intracellular calcium, was loaded into Jurkat cells, and various amounts (0.5 μg, 1 μg, 10 μg, 50 μg) of rosmarinic acid, isolated from Prunella vulgaris, was treated to the cells for 10 minutes. The cells were treated with anti-CD3 and anti-CD4 antibodies, and then the fluctuation of intracellular calcium level was recorded by the amount of fluorescence emitted from the cells.
# [4] = test system: IL-1β, IL-2, IL-4, IL-6 and IFN-γ mRNA; experiment: cytokine mRNA in renal allografts, semi-quantitative RT-PCR; type: in vivo, mice; settings: renal allograft day 7, i.m. daily 7 days, rosmarinic acid 25, Cyclosporin A 50 mg/kg/day
# Description: Balb/c recipients transplanted from C57BL/6 donor were killed at 7 day after the subcapsular kidney transplantation. Renal allografts were harvested and total cellular RNA was extracted and analyzed for the expression of various cytokine mRNA. Using a serniquantitative PCR method, we temporally analyzed mRNA levels of IL-1β, IL-2, IL-4, IL-6 and IFN-γ.
# The cytokine levels of PCR products were normalized by β-actin mRNA used as a control.
# Kidney fragments (C57BL/6) were transplanted to allogeneic mice (Balb/C) using subcapsular kidney transplantation technique.
# Total RNA from the grafts was isolated using TRIZOL® LS Reagent (Life Technologies), incubated at room temperature for 15 min after addition of chloroform, extracted with phenol/chloroform, and precipitated with isopropanol. Isolated total RNA was then quantitated spectrophotometrically. Total RNA from the graft (1 μg) was performed using Titan™ One Tube RT-PCR System (BM) according to the manufacture's protocol. The PCR was done in a 50 μl volume containing 1× RT-PCR buffer with Mg^2+, 0.2 mM each dNTP(dATP, dGTP, dCTP and dTTP), 10U RNase inhibitor, enzyme mix (AMV and Expand™ High Fidelity PCR-System),5 mM DTT solution and 0.4 μM appropriate primer pair. Primer sequences for IL-2, IFN-γ, IL-4, IL-6, IL-1β and β-actin were obtained from previous reports. […] The number of amplification cycles was 25. An aliquot (15 μl) of the PCR product was electrophoresed on 2% agarose gel, and amplified DNA fragments were stained with ethidium bromide.
# [5] = 1 g/kg intramuscular, liposomal form
# [6] = GST-Lck SH2, 1 μM biotinylated pY peptide, 0.03~300 μg/ml tested, read-out: half-maximal inhibitory concentration (IC50) of binding to Lck SH2 domain (converted)
# T1 sequence (P06239 127-224 limits assumed): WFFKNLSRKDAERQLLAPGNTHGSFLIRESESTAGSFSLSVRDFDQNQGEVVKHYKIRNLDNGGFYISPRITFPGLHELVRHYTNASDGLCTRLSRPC
SMILES,"IC50 (Lck SH2 domain; read-out: half-maximal inhibitory concentration (IC50) of binding to Lck SH2 domain, GST-Lck SH2, 1 μM biotinylated pY peptide, 0.03~300 μg/ml tested) [µM]",inhibition of TCR-induced IL-2 gene expression (luciferase activity) [1],suppression of DNFB-induced contact hypersensitivity [2],MST ± SD ([3]; 15 mg/kg/day i.m.) [days],"acute toxic effect (clinic symptom, weights, blood test, autopsy) (SPF SD type rat; [5])",survival after acute dose (SPF SD type rat; [5]),IC50 (Lck SH2 domain) [µM],inhibitory effect on intracellular calcium level (Jurkat cells),IFN-γ mRNA transcription in allograft transplants [4],IL-1β mRNA transcription in allograft transplants ([4]; 50 mg/kg/day),IL-2 mRNA transcription in allograft transplants ([4]; 50 mg/kg/day),IL-4 mRNA transcription in allograft transplants ([4]; 50 mg/kg/day),IL-6 mRNA transcription in allograft transplants ([4]; 50 mg/kg/day),"MST ± SD ([3]; 15 mg/kg/day i.m., listed as rosmarinic acid) [days]",MST ± SD ([3]; 25 mg/kg/day i.m.) [days],IC50 (Lck SH2 domain; [6]) [µM],survival after acute dose (SPF SD type rat; in vivo)
CC(C)(C)[Si](C)(C)Oc1ccc(/C=C/C(=O)O[C@@H](Cc2ccc(O)c(O)c2)C(=O)O)cc1O[Si](C)(C)C(C)(C)C [(S)-Rosmarinyl bis(tert-butyldimethylsilyl)ether],22.1,inhibited as much as rosmarinic acid,dose-dependent suppression,13.2 ± 1.6,did not elicit any toxic effect,all tested animals were survived,,,,,,,,,,,
O=C(/C=C/c1ccc(O)c(O)c1)O[C@@H](Cc1ccc(O)c(O)c1)C(=O)O [(S)-rosmarinic acid],,inhibited as much as rosmarinic acid,dose-dependent suppression,14.8 ± 1.5,did not elicit any toxic effect,all tested animals were survived,27.8,,,,,,,,,,
"O=C(/C=C/c1ccc(O)c(O)c1)OC(Cc1ccc(O)c(O)c1)C(=O)O (centres unmarked) [Rosmarinic acid, rosmarinic acid]",,more efficiently than other immunosuppressants did,dose-dependently suppressed,14.0 ± 1.0,did not elicit any toxic effect,all tested animals were survived,8.33,dose-dependent inhibitory effect,markedly inhibited,markedly inhibited; also recorded: more potent activity than that of Cyclosporin A,markedly inhibited; also recorded: more potent activity than that of Cyclosporin A,markedly inhibited; also recorded: significantly reduced,markedly inhibited; also recorded: significantly reduced,14.0,18.8 ± 3.6,,
CCOC(=O)C(Cc1ccc(O)c(O)c1)OC(=O)/C=C/c1ccc(O)c(O)c1 (centres unmarked) [Rosmarinyl ethyl ester],,inhibited as much as rosmarinic acid,dose-dependent suppression,14.4 ± 1.8,did not elicit any toxic effect,,,,,,,,,,,10.3,all tested animals were survived
CC(C)OC(=O)C(Cc1ccc(O)c(O)c1)OC(=O)/C=C/c1ccc(O)c(O)c1 (centres unmarked) [Rosmarinyl isopropyl ester],,inhibited as much as rosmarinic acid,dose-dependent suppression,14.2 ± 1.8,did not elicit any toxic effect,,,,,,,,,,,2.49,all tested animals were survived
